Source: ChEMBL document CHEMBL1201862, “PubChem BioAssay data set” (2004)
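Five concentrations, 48 hours, 96-well plates. GI50 = concentration required for 50% inhibition of growth.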 Activity calls are given as the source filed them. No stated cut-off is given here; in the data, active = GI50 up to about 1.1 µM and inactive = higher.

Tests used:
Assay in all cases: NCI-60 cell line screen, 48 h
[1] = test system: NCI-H522
[2] = test system: HOP-62
[3] = test system: HT-29
[4] = test system: SNB-19
[5] = test system: K562
[6] = test system: A549
[7] = test system: T47D
[8] = test system: SK-MEL-5
[9] = test system: SR
[10] = test system: A498
[11] = test system: HOP-92
[12] = test system: SK-OV-3
[13] = test system: M14
[14] = test system: IGROV-1
[15] = test system: NCI-H23
[16] = test system: ACHN
[17] = test system: HCC 2998
[18] = test system: OVCAR-5
[19] = test system: UO-31
[20] = test system: NCI-H460
[21] = test system: RPMI-8226
[22] = test system: CAKI-1
[23] = test system: MDA-N
[24] = test system: RXF 393
[25] = test system: MOLT-4
[26] = test system: KM12
[27] = test system: UACC-62
[28] = test system: Hs-578T
[29] = test system: MCF7
[30] = test system: SK-MEL-2
[31] = test system: EKVX
[32] = test system: TK-10
[33] = test system: HCT-116
[34] = test system: U-251
[35] = test system: NCI-H226
[36] = test system: SK-MEL-28
[37] = test system: CCRF-CEM
[38] = test system: SF-268
[39] = test system: SNB-75
[40] = test system: SN12C
[41] = test system: COLO 205
[42] = test system: NCI/ADR-RES
[43] = test system: PC-3
[44] = test system: HL-60
[45] = test system: DU-145
[46] = test system: 786-0
[47] = test system: SF-539
[48] = test system: Malme-3M
[49] = test system: HCT-15
[50] = test system: UACC-257
[51] = test system: OVCAR-4
[52] = test system: LOX IMVI
[53] = test system: OVCAR-8
[54] = test system: SF-295
[55] = test system: SW-620
[56] = test system: MDA-MB-435
[57] = test system: OVCAR-3
[58] = test system: MDA-MB-231

In the case of `CCN(CC)C(=S)SS(=O)(=O)c1ccc(N)cc1`, the GI50 [1] is reported as 3.68 µM (inactive), the GI50 [2] is reported as > 58.2 µM (inactive) and the GI50 [3] is reported as > 100 µM (inactive). For the same molecule, the GI50 [4] was > 100 µM (inactive), the GI50 [5] was 39.5 µM (inactive) and the GI50 [6] was 14.5 µM (inactive). The GI50 [7] was 76.7 µM (inactive), the GI50 [8] was 15.2 µM (inactive) and the GI50 [9] was 3.41 µM (inactive). For the same molecule, the GI50 [10] was > 40.2 µM (inactive), the GI50 [11] was > 23.1 µM (inactive) and the GI50 [12] was > 100 µM (inactive). The GI50 [13] was 70 µM (inactive), the GI50 [14] was 4.91 µM (inactive) and the GI50 [15] was > 100 µM (inactive). The GI50 [16] was > 78.3 µM (inactive), the GI50 [17] was > 29.1 µM (inactive) and the GI50 [18] was > 100 µM (inactive). For the same molecule, the GI50 [19] was > 89.5 µM (inactive), the GI50 [20] was 87.1 µM (inactive) and the GI50 [21] was 22.8 µM (inactive). The GI50 [22] was > 46.9 µM (inactive), the GI50 [23] was 70.5 µM (inactive) and the GI50 [24] was 31.8 µM (inactive). For the same molecule, the GI50 [25] was 2.3 µM (inactive), the GI50 [26] was 29.6 µM (inactive) and the GI50 [27] was 39.4 µM (inactive). The GI50 [28] was > 91 µM (inactive), the GI50 [29] was 7.29 µM (inactive) and the GI50 [30] was > 100 µM (inactive). For the same molecule, the GI50 [31] was > 100 µM (inactive).
In the case of `C=C(C)[C@@H]1CCC2=C[C@H](OC2=O)[C@@]2(C)C[C@@H]2C2=CC(C)=C(O2)[C@H]1O`, the GI50 [1] is reported as 15.1 µM (inactive), the GI50 [2] is reported as > 75 µM (inactive) and the GI50 [3] is reported as 23 µM (inactive). For the same molecule, the GI50 [4] was > 75 µM (inactive), the GI50 [5] was > 75 µM (inactive) and the GI50 [32] was 38.7 µM (inactive). The GI50 [33] was 22.3 µM (inactive), the GI50 [34] was > 75 µM (inactive) and the GI50 [6] was 39 µM (inactive). The GI50 [35] was 27.7 µM (inactive), the GI50 [36] was 46 µM (inactive) and the GI50 [37] was 37.4 µM (inactive). The GI50 [38] was 30.7 µM (inactive), the GI50 [7] was 28.1 µM (inactive) and the GI50 [39] was 35.5 µM (inactive). For the same molecule, the GI50 [40] was 25.5 µM (inactive), the GI50 [9] was > 75 µM (inactive) and the GI50 [10] was > 75 µM (inactive). For the same molecule, the GI50 [11] was > 75 µM (inactive), the GI50 [41] was 33.2 µM (inactive) and the GI50 [12] was 54.5 µM (inactive). For the same molecule, the GI50 [13] was 68.4 µM (inactive), the GI50 [42] was 23.6 µM (inactive) and the GI50 [14] was 21.3 µM (inactive). For the same molecule, the GI50 [43] was 33.9 µM (inactive), the GI50 [15] was 25.9 µM (inactive) and the GI50 [44] was 46.6 µM (inactive). For the same molecule, the GI50 [45] was 37.3 µM (inactive), the GI50 [46] was 21.8 µM (inactive) and the GI50 [16] was 36.9 µM (inactive). For the same molecule, the GI50 [17] was > 75 µM (inactive), the GI50 [18] was > 75 µM (inactive) and the GI50 [47] was 49.8 µM (inactive). The GI50 [48] was 48.9 µM (inactive), the GI50 [19] was 60.8 µM (inactive) and the GI50 [20] was 54.3 µM (inactive). For the same molecule, the GI50 [49] was 36.4 µM, the GI50 [22] was 21.5 µM (inactive) and the GI50 [23] was 23.4 µM (inactive). The GI50 [24] was 38.5 µM (inactive), the GI50 [50] was 39.1 µM (inactive) and the GI50 [51] was 42.2 µM (inactive). For the same molecule, the GI50 [52] was 27.1 µM (inactive), the GI50 [25] was 24.8 µM (inactive) and the GI50 [26] was 25.5 µM (inactive). For the same molecule, the GI50 [53] was 25.1 µM (inactive), the GI50 [54] was 33.3 µM (inactive) and the GI50 [27] was 41.1 µM (inactive). For the same molecule, the GI50 [55] was > 75 µM (inactive), the GI50 [56] was 30.6 µM (inactive) and the GI50 [29] was 53.2 µM (inactive). The GI50 [30] was 40.8 µM (inactive), the GI50 [57] was 43.4 µM (inactive) and the GI50 [31] was 36.8 µM (inactive). For the same molecule, the GI50 [58] was 28.2 µM (inactive).
In the case of `Cn1/c(=N\c2ccccc2[N+](=O)[O-])sc2ccccc21`, the GI50 [1] is reported as 9.29 µM (inactive), the GI50 [2] is reported as 20.6 µM (inactive) and the GI50 [3] is reported as > 100 µM (inactive). For the same molecule, the GI50 [4] was 36.1 µM (inactive), the GI50 [5] was > 100 µM (inactive) and the GI50 [32] was 8.93 µM (inactive). The GI50 [33] was 72.8 µM (inactive), the GI50 [34] was 36.6 µM (inactive) and the GI50 [6] was > 100 µM (inactive). The GI50 [35] was 34.9 µM (inactive), the GI50 [36] was 89.7 µM (inactive) and the GI50 [37] was > 100 µM (inactive). For the same molecule, the GI50 [38] was 70.5 µM (inactive), the GI50 [7] was 3.95 µM (inactive) and the GI50 [39] was 18.4 µM (inactive). For the same molecule, the GI50 [8] was 19.2 µM (inactive), the GI50 [40] was 84.1 µM (inactive) and the GI50 [9] was > 100 µM (inactive). For the same molecule, the GI50 [10] was 54.8 µM (inactive), the GI50 [11] was 14.7 µM (inactive) and the GI50 [41] was > 100 µM (inactive). The GI50 [12] was 23 µM (inactive), the GI50 [42] was 95.9 µM (inactive) and the GI50 [14] was 5.4 µM (inactive). For the same molecule, the GI50 [43] was 66.1 µM (inactive), the GI50 [15] was 26 µM (inactive) and the GI50 [44] was > 100 µM (inactive). The GI50 [45] was > 100 µM (inactive), the GI50 [46] was 30.7 µM (inactive) and the GI50 [16] was 61.5 µM (inactive). The GI50 [17] was 30.3 µM (inactive), the GI50 [18] was 22 µM (inactive) and the GI50 [47] was 28.2 µM (inactive). For the same molecule, the GI50 [48] was > 100 µM (inactive), the GI50 [19] was > 100 µM (inactive) and the GI50 [20] was 50.2 µM (inactive). For the same molecule, the GI50 [21] was > 100 µM (inactive), the GI50 [49] was 2.61 µM and the GI50 [22] was 43.9 µM (inactive). The GI50 [23] was > 100 µM (inactive), the GI50 [24] was 30.1 µM (inactive) and the GI50 [50] was 29.9 µM (inactive). For the same molecule, the GI50 [51] was 16.1 µM (inactive), the GI50 [52] was > 100 µM (inactive) and the GI50 [25] was > 100 µM (inactive). For the same molecule, the GI50 [26] was 1.6 µM (inactive), the GI50 [53] was 49.9 µM (inactive) and the GI50 [54] was 42.6 µM (inactive). The GI50 [27] was 30.5 µM (inactive), the GI50 [55] was > 100 µM (inactive) and the GI50 [56] was > 100 µM (inactive). The GI50 [28] was 16.5 µM (inactive), the GI50 [30] was 33.7 µM (inactive) and the GI50 [31] was 8.61 µM (inactive). For the same molecule, the GI50 [58] was 6.1 µM (inactive).
